Measurements reported in US10954231B2, “Anxiolytic compounds” (Bionomics Limited, priority 2006, dated 2021).

Key:
Type in all cases: in vivo
[1] = test system: rat; experiment: Elevated plus maze; design: key to EPM rat: significant anxiolytic effect (number of significant parameters): +: a significant anxiolytic effect in one of the three parameters measured in the LD model; ++: represents a significant effect in 2 parameters; +++: is significance in all three; conditions: oral, 60 min before test
[2] = test system: mice; experiment: Open field (dark), spontaneous motor activity; design: key to OF: sedation: NS: no sedation; S: sedation; conditions: oral, 60 min before test; for OF: sedation: 20 min recording; for OF: maximum non-sedating dose: for examples marked * 20 mg/kg is the only dose tested
Source text: The open field (dark) is used to measure the spontaneous motor activity of mice in a quiet, dark environment. This system is useful for discriminating the sedating or stimulating properties of test compounds on spontaneous locomotion and can thus provide a preliminary indication of potentially adverse effects such as sedation.
The apparatus is an open plexiglass cage (52×52 cm) with 40 cm walls. The animal's movements are tracked by a computerised video tracking system, consisting of an overhead camera, diode sensors placed underneath the floor of the cage, computer and video analyser software (ViewPoint, France). The video camera is placed at 2.50 m above the cage and connected to the computer via a video capture card (Pinnacle Systems, France). The video tracking system is set in a way that the floor of the OF is divided into nine equal squares. The total number of crossed squares and the total walked distance are recorded.
Each animal is singly placed in a corner of the apparatus and its locomotor activity is automatically recorded over a period of 20 minutes.
The apparatus is cleaned between each animal with alcohol (70%).
The below items were tested in the Open Field as indicated by an entry in the OF column. NS=no sedation; S=sedation. The maximum non-sedating dose in mg/kg is shown.
Test compound was prepared in 5% PEG400−0.9% NaCl. It was administered orally, 60 minutes before the implementation of the test.

[3] = test system: mice; experiment: Marble burying test; conditions: oral, 60 min before test, 20 min session
Source text: The Marble Burying test is used as a model for both anxiety and obsessive compulsive disorders. Mice have a natural tendency to bury marbles under the bedding when placed in a cage with rows of evenly spaced marbles on the floor. Suppression of this spontaneous burying has been used as a measure of anxiolytic drug action. Mice pre-treated with benzodiazepines and different classes of antidepressants bury less marbles when compared to the control mice
The apparatus consists of transparent polycarbonate cages (30 cm×18 cm×19 cm) containing a 5 cm layer of fine sawdust bedding and 20 glass marbles (diameter: 1.5 cm) spaced evenly along the walls of the cage. Each animal is placed individually in the cage where it remains for a 20 min test session. On termination of the test session the animals are removed from the cage and the number of marbles at least two-thirds buried in the sawdust is recorded.
Example 1 was tested in the Marble Burying model. The minimum effective dose in mg/kg is indicated in the MB column in Table 1.
The test compound was prepared in 5% PEG400−0.9% NaCl.
(§1) It was administrated orally, 60 minutes before the implementation of the test.

[4] = test system: mice; experiment: Light dark test; conditions: oral, 60 min before test; for LD: significant anxiolytic effect (number of significant parameters): parameters: time spent in lit area, transitions into lit area, total walked distance in lit area; for minimal effective dose at 20 mg/kg: Mus musculus, 1 h, for examples marked * 20 mg/kg is the only dose tested, read-out: LD: minimum effective dose
Source text: The light dark paradigm is based on a conflict between the innate aversion of rodents to brightly illuminated areas and on the spontaneous exploratory behaviour of the mice. If given a choice between a large brightly compartment versus a small dark compartment they spontaneously prefer the dark part.
The apparatus consists of two PVC (polyvinylchloride) boxes (19×19×15 cm) covered with Plexiglas. One of these boxes is darkened. The other box is illuminated by 100 W desk lamp placed 15 cm above and providing an illumination of about 4400 Lux. An opaque plastic tunnel (5×7×10 cm) separates the dark box from the illuminated one.
Animals were placed individually in the lit box, with head directed towards the tunnel. The time spent in the lit box and the number of transitions between the two boxes was recorded over a 5 min period after the first entry of the animal in the dark box. The total walked distance in the lit box was also recorded. Animals scored without entry into the […] were excluded from the analysis.
The compounds in Table 1 were tested in the light-dark test (indicated in the LD column). +=a significant anxiolytic effect in one of the three parameters measured in the LD model, ++ represents a significant effect in 2 parameters and +++ is significance in all three. The parameters are: time spent in the lit area, number of transitions into the lit area, or total walked distance in the lit area.
The test compound was prepared in 5% PEG400-0.9% NaCl.
as §1

CCn1cc(C(=O)N2CCOCC2)c(=O)c2cc(NC3Cc4ccccc4C3)cnc21 [Example 1, Morpholino 6-(2,3-dihydro-1H-inden-2-yl)amino-1-ethyl-1,4-dihydro-4-oxo-1,8-naphthyridine-3-carboxamide]
EPM rat: minimum effective dose [1]: 0.1 mg/kg
EPM rat: significant anxiolytic effect (number of significant parameters) ([1]; parameters: time spent in open arms, transitions into open arms, total walked distance in open arms): +++
OF: sedation [2]: NS
OF: maximum non-sedating dose [2]: 100 mg/kg
MB: minimum effective dose [3]: 1 mg/kg
LD: significant anxiolytic effect (number of significant parameters) [4]: ++

CCn1cc(C(=O)N2CCOCC2)c(=O)c2nc(NC3Cc4ccccc4C3)ccc21 [Example 2, Morpholino 6-(2,3-dihydro-1H-inden-2-ylamino)-1-ethyl-1,4-dihydro-4-oxo-1,5-naphthyridine-3-carboxamide]
OF: sedation [2]: S
OF: maximum non-sedating dose [2]: 5 mg/kg
minimal effective dose at 20 mg/kg [4]: 30 mg/kg
LD: significant anxiolytic effect (number of significant parameters) [4]: +++

CCn1cc(C(=O)N2CCOCC2)c(=O)c2cc(NC3Cc4ccccc4C3)ncc21 [Example 3, morpholino 6-(2,3-dihydro-1H-inden-2-ylamino)-1-ethyl-1,4-dihydro-4-oxo-1,7-naphthyridine-3-carboxamide]
LD: significant anxiolytic effect (number of significant parameters) [4]: ++

CCn1cc(C(=O)N2CCN(C)CC2)c(=O)c2cc(NC3Cc4ccccc4C3)cnc21 [Example 4, Methylpiperazino 6-(2,3-dihydro-1H-inden-2-ylamino)-1-ethyl-1,4-dihydro-4-oxo-1,8-naphthyridine-3-carboxamide]
minimal effective dose at 20 mg/kg [4]: 20 mg/kg
LD: significant anxiolytic effect (number of significant parameters) [4]: ++

CCn1cc(C(=O)NC2CC2)c(=O)c2cc(NC3Cc4ccccc4C3)cnc21 [Example 5, Cyclopropylamino 6-(2,3-dihydro-1H-inden-2-ylamino)-1-ethyl-1,4-dihydro-4-oxo-1,8-naphthyridine-3-carboxamide]
minimal effective dose at 20 mg/kg [4]: 20 mg/kg
LD: significant anxiolytic effect (number of significant parameters) [4]: +

CCN(CC)C(=O)c1cn(CC)c2ncc(NC3Cc4ccccc4C3)cc2c1=O [Example 6]
OF: sedation [2]: NS
OF: maximum non-sedating dose [2]: 20 mg/kg
minimal effective dose at 20 mg/kg [4]: 20 mg/kg
LD: significant anxiolytic effect (number of significant parameters) [4]: ++

CCOC(=O)c1cn(CC)c2ncc(NC(=O)c3cc(OC)c(OC)c(OC)c3)cc2c1=O [Example 7, Ethyl 6-(3,4,5-trimethoxybenzoylamide)-1-ethyl-1,4-dihydro-4-oxo-1,8-naphthyridine-3-carboxylate]
OF: sedation [2]: S
OF: maximum non-sedating dose [2]: 20 mg/kg
minimal effective dose at 20 mg/kg [4]: 20 mg/kg
LD: significant anxiolytic effect (number of significant parameters) [4]: ++

CCn1cc(C(=O)Nc2ccc(F)cc2)c(=O)c2cc(NC3Cc4ccccc4C3)cnc21 [Example 8]
OF: sedation [2]: NS
OF: maximum non-sedating dose [2]: 20 mg/kg
minimal effective dose at 20 mg/kg [4]: 20 mg/kg
LD: significant anxiolytic effect (number of significant parameters) [4]: ++

CCn1cc(C(=O)Nc2ccc(-c3ccccc3)cc2)c(=O)c2cc(NC3Cc4ccccc4C3)cnc21 [Example 9, 4-biphenylamino-6-(2,3-dihydro-1H-inden-2-ylamino)-1-ethyl-1,4-dihydro-4-oxo-1,8-naphthyridine-3-carboxamide]
OF: sedation [2]: NS
OF: maximum non-sedating dose [2]: 20 mg/kg
minimal effective dose at 20 mg/kg [4]: 20 mg/kg
LD: significant anxiolytic effect (number of significant parameters) [4]: +++

CCOC(=O)c1cn(CC)c2ncc(NC(=O)C(C)C)cc2c1=O [Example 10, Ethyl 6-(isobutyrylamide)-1-ethyl-1,4-dihydro-4-oxo-1,8-naphthyridine-3-carboxylate]
OF: sedation [2]: NS
OF: maximum non-sedating dose [2]: 20 mg/kg
minimal effective dose at 20 mg/kg [4]: 20 mg/kg
LD: significant anxiolytic effect (number of significant parameters) [4]: +++
